The results in this text go back to patent publication US11292786B2, “Pyrimidine compounds and pharmaceutical compositions for preventing or treating cancers including the same” (HANMI PHARM. CO., LTD., priority 2018, dated 2022).

Data set [1] can be described thus: Microsomal stability, human liver microsomes. Format: in vitro ADME. Particulars: residual amount % after 1 hour at 37° C., 5 μM, 1 mg/ml human liver microsomes, NADPH regenerating system. As to the method:
To confirm the reactivity of the test substances with intra-hepatic CYP450 enzymes, 5 μM test substances and 1 mg/ml human liver microsomes were incubated for 1 hour at a temperature of 37° C. in the presence of an NADPH regenerating system. After 1 hour, acetonitrile was added to terminate the reaction, and the supernatant obtained by centrifugation was analyzed by HPLC. The remaining amount % was calculated using the following equation using the value of the reacted sample for 1 hour relative to the value of the 0-minute sample as the peak value obtained as an analysis result. (Peak value of the sample reacted for 1 hour/peak value of the sample at 0 minutes)×100=residual amount %.

Data set [2] is described as follows: Microsomal stability, mice microsomes. Type of data set: in vitro ADME. Particulars: residual amount % after 1 hour at 37° C., 5 μM, NADPH regenerating system.

With `CCN(CC)C1CCN(c2cc(Nc3ncc(Cl)c(-c4c[nH]c5cc(C)ccc45)n3)cc(C3CC3)c2)CC1` [Control Compound 6], the “Human microsomal stability (%)” value in data set [1] came to 49%. Also, in data set [2], the “Mice microsomal stability (%)” value stood at 29%.
As to `Cc1ccc2c(-c3nc(Nc4cc(CN5C[C@@H](C)NC6(CC6)C5)cc(C5CC5)c4)ncc3Cl)c[nH]c2c1` [Example 27, (R)-5-chloro-N-(3-cyclopropyl-5-((5-methyl-4,7-diazaspiro[2.5]octan-7-yl)methyl)phenyl)-4-(6-methyl-1H-indole-3-yl)pyrimidine-2-amine], the “Human microsomal stability (%)” value in data set [1] is given as 72%. Besides, the “Mice microsomal stability (%)” value in data set [2] was 69%.
